# Source: patent US7323541B2, “Polypeptide DNA thereof and use of the same” (Takeda Pharmaceutical Company Limited, priority 2001, dated 2008)
# Where a chain is given by its changes, count along the chain named. Where no end group is shown, it is not given here.
# Columns and labels:
# Assay in all cases: Intracellular Ca ion concentration increasing activity using FLIPR
# Format in all cases: cell-based
# [1] = target: T1, human TGR23-1A expressing CHO cells (Homo sapiens, UniProt Q6W5P4, S241R)
# T1 construct: expressed in transfected cells; host or cells: CHO dhfr- cells, pAKKO-TGR23-1A, clone No. 60
# T1 sequence (Q6W5P4 1-371 S241R): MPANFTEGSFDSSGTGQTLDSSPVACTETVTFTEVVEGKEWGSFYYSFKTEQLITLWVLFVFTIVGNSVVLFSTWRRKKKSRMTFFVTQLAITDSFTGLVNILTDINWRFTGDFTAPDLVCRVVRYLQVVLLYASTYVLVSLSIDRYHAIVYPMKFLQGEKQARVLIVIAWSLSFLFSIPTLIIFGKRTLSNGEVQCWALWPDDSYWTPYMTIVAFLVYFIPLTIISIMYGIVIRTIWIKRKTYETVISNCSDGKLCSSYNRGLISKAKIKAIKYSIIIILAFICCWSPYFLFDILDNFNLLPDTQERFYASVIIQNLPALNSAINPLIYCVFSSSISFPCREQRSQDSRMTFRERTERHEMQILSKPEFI
# Protocol: (§1) An enhancing activity of intracellular Ca^2+ release was assayed using FLIPR (Molecular Devices, Inc.). The CHO/TGR23-2 cells prepared in Example 1 and selected in Example 2 were plated on 96-well plate at 3×10^4 cells/well and cultured for 24 hours. A loading buffer was prepared by adding 1 vial of Fluo 3-AM to 10 ml of Hanks' solution (pH7.4) containing 2.5 mM Probenecid and 20 mM HEPES (hereafter, Hanks' solution (pH7.4) containing 2.5 mM Probenecid and 20 mM HEPES may be referred to as a washing buffer). The culture medium was discarded from the culture plate and 100 μl/well of the loading buffer were added to the cells. Then, the cells were incubated for 60 minutes in the incubator. After the loading buffer was removed from the culture plate and the cells were washed with the washing buffer, the plate was put in place of FLIPR. A sample was prepared by adding a sample buffer, which 2 mg/ml BSA and 1 mg/ml CHAPS were added to the washing buffer, to lyophilized product, stirring and treating by ultrasonication for 30 minutes, and transferred to 96-well sample plate. This sample plate was also put in place for assay. The enhancing activity of intracellular Ca^2+ release was measured as an increase of fluorescent intensity, which is raised by addition of the sample.
# (§2) The human TGR23-2 ligand (1-20) having various concentrations was administered in accordance with the method described in Example 5, to the CHO cells, in which human TGR23-1A, human TGR23-1B, human TGR23-1C and human TGR23-1D are expressed. Subsequently, the intracellular Ca ion concentration increasing activity was measured using FLIPR.
# [2] = target: T2, human TGR23-1D expressing CHO cells (Homo sapiens, UniProt Q6W5P4, Q344R)
# T2 construct: expressed in transfected cells; host or cells: CHO dhfr- cells, pAKKO-TGR23-1D, clone No. 12
# T2 sequence (Q6W5P4 1-371 Q344R): T1 sequence (Q6W5P4 1-371 S241R) with R241S, Q344R
# Protocol: as §1, §2
# [3] = target: T3, human TGR23-1B expressing CHO cells (Homo sapiens, UniProt Q6W5P4, N107I/S241R)
# T3 construct: expressed in transfected cells; host or cells: CHO dhfr- cells, pAKKO-TGR23-1B, clone No. 59
# T3 sequence (Q6W5P4 1-371 N107I/S241R): T1 sequence (Q6W5P4 1-371 S241R) with N107I
# Protocol: as §1, §2
# [4] = target: T4, human TGR23-1C expressing CHO cells (Homo sapiens, UniProt Q6W5P4, N107I)
# T4 construct: expressed in transfected cells; host or cells: CHO dhfr- cells, pAKKO-TGR23-1C, clone No. 9
# T4 sequence (Q6W5P4 1-371 N107I): T1 sequence (Q6W5P4 1-371 S241R) with N107I, R241S
# Protocol: as §1, §2
sequence,measurement,setting,value
SFRNGVGTGMKKTSFQRAKS [human TGR23-2 ligand (1-20)],intracellular Ca ion concentration increasing activity,[1],the intracellular Ca ion level increased depending on the concentration of this ligand
same,intracellular Ca ion concentration increasing activity,[2],the intracellular Ca ion level increased depending on the concentration of this ligand
same,intracellular Ca ion concentration increasing activity,[3],the intracellular Ca ion level increased depending on the concentration of this ligand
same,intracellular Ca ion concentration increasing activity,[4],the intracellular Ca ion level increased depending on the concentration of this ligand
